The record followed here is US20090247495A1, “CU[…] AND USES THEREOF” (priority 2007, published 2009).

The term GI50 denotes the concentration at which growth is held to half of that of the control. The low end stands for more potent growth inhibition, the high end for less potent growth inhibition.

One assay relates to K562. The assay is described as follows: Cell proliferation assay using SRB, K562. Format: cell-based. Conditions: Homo sapiens, 48 hours treatment. As for the experimental part:
Human leukemia cell lines CCRF-CEM, K562, MOLT-4, RPMI-8226 and SR, purchased from the National Cancer Institute (NCI), were cultured in RPMI 1640 medium supplemented with 5%(v/v) fetal Bovine […] and 100 units/ml penicillin and 100 units/ml streptomycin in a humidified 5% CO2 atmosphere at 37° C. • 6.1.2 Reagents and Antibodies
All 5 human leukemia cells were screened by the cell proliferation assay using SRB to quantitative cell protein mass following cucurbitacin B treatment. The experiments were repeated in triplicate. Appropriate number of cells (depends on the doubling time of cells) were seeded into a 96-well tissue culture plate and growth in the indicated medium in presence of different dosages of cucurbitacin B for 2 days. Afterwards 25 μl 80%TCA reagent was added into each well to fix the cells and the plates were incubated at 4° C. at least for 1 hour. Then the plates were washed with tap water and air dried. […] The plates were air dried and dissolved by 100 μl 1 OmMTrizma-base solution and the absorbance was measured at 515 nm using FLUOstar OPTIMA equipment. • 6.1.4 Flow Cytometry for Apoptosis Analysis
Appropriate number of cell density were seeded into a 96 well culture plate and treated with different doses of cucurbitacin B for 2 days. The growth inhibition effects of cucurbitacin B on the cells were detected using SRB.

In the next assay the test system is HL60 and U937 cells. The assay can be described thus: Cell differentiation: CD11b expression by flow cytometry. Format: cell-based, human. Conditions: 96-hour treatment. As for the experimental part: HL60 and U937 cells were incubated with vary doses of cucurbitacin B for 96 hours at 37° C. For analysis of cell differentiaion, cells were then incubated with either R-phycoerythrin-conjugated murine anti-human CD11b antibody (DAKO, Carpinteria, Calif.). For analysis of cell cycle, cells were washed and fixed with chilled methanol, and incubated on ice for 30 minutes prior to staining with propidium iodide. All analyses were performed by flow cytometry.
Following a 96-hour treatment with cucurbitacin B, HL60 (FIG. 14A) and U937 (FIG. 14B) cells were incubated with RPE-conjugated CD11b-specific antibody (dark grey) or RPE-conjugated IgGI control antibody (light grey), and flow cytometry was performed.
On the technique in general: A flow cytometer gives signals particle by particle.

As to `CC(=O)OC(C)(C)/C=C/C(=O)[C@](C)(O)C1[C@H](O)C[C@@]2(C)C3CC=C4C(C[C@H](O)C(=O)C4(C)C)[C@]3(C)C(=O)C[C@]12C` (some centres unmarked) [cucurbitacin B], in the assay on K562, halving of growth (GI50) required 15.6 nM. In the assay on HL60 and U937 cells, the “expression of cell surface marker CD11b” value was “enhanced expression”.
